Assay results as given in PubChem BioAssay (NCI).
“And” between values parts separate entries of the source, which are not always exact repeats. Identical values can stand only once.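 These data come from cells grown in 96-well plates and exposed to compound for 48 hours at five concentrations. GI50 = concentration required for 50% inhibition of growth. TGI marks complete inhibition of growth.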

Key:
Assay in all cases: growth of human tumour cells (NCI), 48 h
OVCAR-8 ovarian = system: OVCAR-8 ovarian
SF-295 CNS = system: SF-295 CNS
SK-MEL-2 melanoma = system: SK-MEL-2 melanoma
K-562 leukemia = system: K-562 leukemia
KM12 colon = system: KM12 colon
SW-620 colon = system: SW-620 colon
NCI-H460 lung = system: NCI-H460 lung
SNB-75 CNS = system: SNB-75 CNS
RPMI-8226 leukemia = system: RPMI-8226 leukemia

In the case of `Clc1ccc2ncc(-c3cccc(NC4CNC4)n3)n2c1`, the GI50 (OVCAR-8 ovarian) is reported as 3.92 µM, the TGI (OVCAR-8 ovarian) is reported as 84.3 µM and the GI50 (SF-295 CNS) is reported as 3.34 µM. For the same molecule, the TGI (SF-295 CNS) was 20.2 µM, the GI50 (SK-MEL-2 melanoma) was 13.5 µM and the TGI (SK-MEL-2 melanoma) was 37.9 µM. For the same molecule, the GI50 (K-562 leukemia) was 8.9 µM, the TGI (K-562 leukemia) was greater than 100 µM and the GI50 (KM12 colon) was 0.686 µM. For the same molecule, the TGI (KM12 colon) was greater than 100 µM, the GI50 (SW-620 colon) was 2.92 µM and the TGI (SW-620 colon) was 15.8 µM. The GI50 (NCI-H460 lung) was 2.96 µM, the TGI (NCI-H460 lung) was 13.5 µM and the GI50 (SNB-75 CNS) was 10.6 µM. For the same molecule, the TGI (SNB-75 CNS) was 27.8 µM.
`NC1=NC(=O)/C(=C/c2ccc3ncccc3c2)S1` was tested, and the GI50 (OVCAR-8 ovarian) was greater than 25 µM, the TGI (OVCAR-8 ovarian) was greater than 25 µM and the GI50 (RPMI-8226 leukemia) was greater than 25 µM. It also gave a TGI (RPMI-8226 leukemia) greater than 25 µM, a GI50 (SF-295 CNS) greater than 25 µM and a TGI (SF-295 CNS) greater than 25 µM. It also gave a GI50 (SK-MEL-2 melanoma) greater than 20.7 µM, a TGI (SK-MEL-2 melanoma) greater than 25 µM and a GI50 (K-562 leukemia) greater than 25 µM. It also gave a TGI (K-562 leukemia) greater than 25 µM, a GI50 (KM12 colon) greater than 25 µM and a TGI (KM12 colon) greater than 25 µM. It also gave a GI50 (SW-620 colon) greater than 25 µM, a TGI (SW-620 colon) greater than 25 µM and a GI50 (NCI-H460 lung) greater than 25 µM. For the same molecule, the TGI (NCI-H460 lung) was greater than 25 µM, the GI50 (SNB-75 CNS) was greater than 25 µM and the TGI (SNB-75 CNS) was greater than 25 µM.
`COc1cccc(C2=C(c3cn(C)c4cc(F)ccc34)C(=O)NC2=O)c1` was tested, and the GI50 (OVCAR-8 ovarian) was greater than 18.2 µM, the TGI (OVCAR-8 ovarian) was greater than 25 µM and the GI50 (RPMI-8226 leukemia) was greater than 17.4 µM. It also gave a TGI (RPMI-8226 leukemia) greater than 25 µM, a GI50 (SF-295 CNS) greater than 18.3 µM and a TGI (SF-295 CNS) greater than 25 µM. The GI50 (SK-MEL-2 melanoma) was greater than 19.4 µM, the TGI (SK-MEL-2 melanoma) was greater than 25 µM and the GI50 (K-562 leukemia) was 12.4 µM. The TGI (K-562 leukemia) was greater than 25 µM, the GI50 (KM12 colon) was greater than 17.4 µM and the TGI (KM12 colon) was greater than 25 µM. For the same molecule, the GI50 (SW-620 colon) was 13.1 µM, the TGI (SW-620 colon) was greater than 25 µM and the GI50 (NCI-H460 lung) was greater than 18.6 µM. It also gave a TGI (NCI-H460 lung) greater than 25 µM, a GI50 (SNB-75 CNS) of 2.42 µM and a TGI (SNB-75 CNS) greater than 25 µM.
Molecule `CC(c1ccccc1)[C@@H](C(=O)Nc1ccc(I)cc1F)N1C(=O)N[C@H](c2ccc(OC[C@H](O)CO)cc2)C1=O` (some centres not stated) has a GI50 (OVCAR-8 ovarian) greater than 15.9 µM, a TGI (OVCAR-8 ovarian) greater than 25 µM and a GI50 (RPMI-8226 leukemia) of 11.9 µM. The TGI (RPMI-8226 leukemia) was greater than 25 µM, the GI50 (SF-295 CNS) was greater than 25 µM and the TGI (SF-295 CNS) was greater than 25 µM. The GI50 (SK-MEL-2 melanoma) was 0.158 µM, the TGI (SK-MEL-2 melanoma) was 1.51 µM and the GI50 (K-562 leukemia) was 9.38 µM. It also gave a TGI (K-562 leukemia) greater than 25 µM, a GI50 (KM12 colon) of 2.4 µM and a TGI (KM12 colon) greater than 25 µM. For the same molecule, the GI50 (SW-620 colon) was 1.09 µM, the TGI (SW-620 colon) was greater than 25 µM and the GI50 (NCI-H460 lung) was greater than 14.6 µM. For the same molecule, the TGI (NCI-H460 lung) was greater than 25 µM, the GI50 (SNB-75 CNS) was greater than 11.1 µM and the TGI (SNB-75 CNS) was greater than 25 µM.
In the case of `C[C@@H](NC(=O)c1ncnc(N)c1Cl)c1ncc(C(=O)Nc2cc(C(F)(F)F)c(Cl)cn2)s1`, the GI50 (OVCAR-8 ovarian) is reported as 15.1 µM, the TGI (OVCAR-8 ovarian) is reported as 40.8 µM and the GI50 (RPMI-8226 leukemia) is reported as 15.2 µM. It also gave a TGI (RPMI-8226 leukemia) of 49 µM, a GI50 (SF-295 CNS) of 13.6 µM and a TGI (SF-295 CNS) of 34.7 µM. It also gave a GI50 (SK-MEL-2 melanoma) of 2.08 µM, a TGI (SK-MEL-2 melanoma) of 8.04 µM and a GI50 (K-562 leukemia) of 0.462 µM. For the same molecule, the TGI (K-562 leukemia) was greater than 45.9 µM, the GI50 (KM12 colon) was 21.3 µM and the TGI (KM12 colon) was greater than 84.6 µM. The GI50 (SW-620 colon) was 11 µM, the TGI (SW-620 colon) was greater than 75.5 µM and the GI50 (NCI-H460 lung) was 20.4 µM. The TGI (NCI-H460 lung) was 79.9 µM, the GI50 (SNB-75 CNS) was 23.1 µM and the TGI (SNB-75 CNS) was 94.4 µM.
With `CC(=O)OC(C)(C)/C=C/C(=O)[C@](C)(O)[C@H]1[C@H](O)C[C@@]2(C)[C@@H]3CC=C4[C@@H](C=C(O)C(=O)C4(C)C)[C@]3(C)C(=O)C[C@]12C` the TGI (OVCAR-8 ovarian) was 5.35 µM and 2.14 µM and 3.28 µM, the TGI (RPMI-8226 leukemia) was 771 nM [middle of 4 runs] and the TGI (SK-MEL-2 melanoma) was 64.9 nM [middle of 4 runs]. The TGI (K-562 leukemia) was 4.97 µM and 9.17 µM and 14 µM, the TGI (KM12 colon) was 5.61 µM and 3.46 µM and 4.83 µM and the TGI (SW-620 colon) was 7.04 µM and 1.26 µM and 3.48 µM. The TGI (NCI-H460 lung) was 1.81 µM and 1.68 µM and 1.49 µM and the TGI (SNB-75 CNS) was 42.7 nM [middle of 4 runs].
With `CCOc1ccc2c(c1)CN(Cc1ccc(Cl)cc1)CO2` the GI50 (OVCAR-8 ovarian) was 18 µM, the TGI (OVCAR-8 ovarian) was 38.3 µM and the GI50 (RPMI-8226 leukemia) was 19.9 µM. The TGI (RPMI-8226 leukemia) was 46.4 µM, the GI50 (SF-295 CNS) was 13 µM and the TGI (SF-295 CNS) was 27.9 µM. The GI50 (SK-MEL-2 melanoma) was 18 µM, the TGI (SK-MEL-2 melanoma) was 34 µM and the GI50 (K-562 leukemia) was 17 µM. It also gave a TGI (K-562 leukemia) of 57 µM, a GI50 (KM12 colon) of 18.3 µM and a TGI (KM12 colon) of 35.5 µM. It also gave a GI50 (SW-620 colon) of 16.4 µM, a TGI (SW-620 colon) of 32.1 µM and a GI50 (NCI-H460 lung) of 16 µM. It also gave a TGI (NCI-H460 lung) of 32.4 µM, a GI50 (SNB-75 CNS) of 15 µM and a TGI (SNB-75 CNS) of 45.8 µM.
With `CC(=O)OCC1OC(OCc2ccccc2)C(Br)C(OC(C)=O)C1OC(C)=O` (configuration not stated) the TGI (OVCAR-8 ovarian) was greater than 100 µM, the TGI (RPMI-8226 leukemia) was greater than 100 µM and the TGI (SF-295 CNS) was greater than 100 µM. It also gave a TGI (K-562 leukemia) greater than 100 µM, a TGI (KM12 colon) greater than 100 µM and a TGI (SW-620 colon) greater than 100 µM. It also gave a TGI (NCI-H460 lung) greater than 100 µM.
`O=c1c2ccccc2nc(-c2ccccc2Cl)n1-c1nnc(C(F)(F)F)s1` showed a GI50 (OVCAR-8 ovarian) of 3.37 µM, a TGI (OVCAR-8 ovarian) greater than 100 µM and a GI50 (RPMI-8226 leukemia) of 2.26 µM. The TGI (RPMI-8226 leukemia) was 8.13 µM, the GI50 (SF-295 CNS) was 2.44 µM and the TGI (SF-295 CNS) was 9.11 µM. The GI50 (SK-MEL-2 melanoma) was 2.72 µM, the TGI (SK-MEL-2 melanoma) was 6.27 µM and the GI50 (K-562 leukemia) was 3.77 µM. For the same molecule, the TGI (K-562 leukemia) was greater than 100 µM, the GI50 (KM12 colon) was 3.68 µM and the TGI (KM12 colon) was 14.1 µM. It also gave a GI50 (SW-620 colon) of 3.4 µM, a TGI (SW-620 colon) of 15.9 µM and a GI50 (NCI-H460 lung) of 3.38 µM. It also gave a TGI (NCI-H460 lung) of 23.3 µM, a GI50 (SNB-75 CNS) of 3.47 µM and a TGI (SNB-75 CNS) greater than 100 µM.
`OCc1ccc(N2CCc3cc(F)ccc3C2)cc1Cl` was tested, and the GI50 (OVCAR-8 ovarian) was 7.31 µM, the TGI (OVCAR-8 ovarian) was 20.8 µM and the GI50 (RPMI-8226 leukemia) was 0.244 µM. The TGI (RPMI-8226 leukemia) was 22.2 µM, the GI50 (SF-295 CNS) was 0.0449 µM and the TGI (SF-295 CNS) was 13.9 µM. For the same molecule, the GI50 (SK-MEL-2 melanoma) was 0.375 µM, the TGI (SK-MEL-2 melanoma) was 17.8 µM and the GI50 (K-562 leukemia) was 0.125 µM. It also gave a TGI (K-562 leukemia) of 17.2 µM, a GI50 (KM12 colon) of 13.2 µM and a TGI (KM12 colon) of 27.3 µM. For the same molecule, the GI50 (SW-620 colon) was 0.17 µM, the TGI (SW-620 colon) was 15.8 µM and the GI50 (NCI-H460 lung) was 0.0583 µM. The TGI (NCI-H460 lung) was 1.84 µM, the GI50 (SNB-75 CNS) was 15.1 µM and the TGI (SNB-75 CNS) was 28.6 µM.
For `O=C(Nc1cccc(-n2cc(-c3ccncc3)c(-c3ccc(O)c(Cl)c3)n2)c1)c1cc(C(F)(F)F)cc(C(F)(F)F)c1`, the GI50 (OVCAR-8 ovarian) was 4.88 µM, the TGI (OVCAR-8 ovarian) was greater than 50 µM and the GI50 (RPMI-8226 leukemia) was 3.31 µM. For the same molecule, the TGI (RPMI-8226 leukemia) was 33.1 µM, the GI50 (SF-295 CNS) was 2.14 µM and the TGI (SF-295 CNS) was 34.2 µM. For the same molecule, the GI50 (SK-MEL-2 melanoma) was 9.33 µM, the TGI (SK-MEL-2 melanoma) was 34 µM and the GI50 (K-562 leukemia) was 2.57 µM. The TGI (K-562 leukemia) was greater than 50 µM, the GI50 (KM12 colon) was 2.05 µM and the TGI (KM12 colon) was 12.5 µM. For the same molecule, the GI50 (SW-620 colon) was 12.2 µM, the TGI (SW-620 colon) was greater than 50 µM and the GI50 (NCI-H460 lung) was 1.9 µM. It also gave a TGI (NCI-H460 lung) greater than 50 µM, a GI50 (SNB-75 CNS) of 2.35 µM and a TGI (SNB-75 CNS) greater than 50 µM.
`CN(NC1OC(CO)C(O)C(O)C1O)c1ccccc1` (configuration not stated) was tested, and the TGI (OVCAR-8 ovarian) was greater than 100 µM, the TGI (RPMI-8226 leukemia) was greater than 100 µM and the TGI (SF-295 CNS) was greater than 100 µM. The TGI (K-562 leukemia) was greater than 100 µM, the TGI (KM12 colon) was greater than 100 µM and the TGI (SW-620 colon) was greater than 100 µM. For the same molecule, the TGI (NCI-H460 lung) was greater than 100 µM.
